# Key:
# [1] = biological target: T1, Interstitial collagenase (Homo sapiens, UniProt P03956); experiment: Inhibitory activity against recombinant matrix metalloprotease-1 (MMP-1).
# T1 sequence (P03956 whole entry): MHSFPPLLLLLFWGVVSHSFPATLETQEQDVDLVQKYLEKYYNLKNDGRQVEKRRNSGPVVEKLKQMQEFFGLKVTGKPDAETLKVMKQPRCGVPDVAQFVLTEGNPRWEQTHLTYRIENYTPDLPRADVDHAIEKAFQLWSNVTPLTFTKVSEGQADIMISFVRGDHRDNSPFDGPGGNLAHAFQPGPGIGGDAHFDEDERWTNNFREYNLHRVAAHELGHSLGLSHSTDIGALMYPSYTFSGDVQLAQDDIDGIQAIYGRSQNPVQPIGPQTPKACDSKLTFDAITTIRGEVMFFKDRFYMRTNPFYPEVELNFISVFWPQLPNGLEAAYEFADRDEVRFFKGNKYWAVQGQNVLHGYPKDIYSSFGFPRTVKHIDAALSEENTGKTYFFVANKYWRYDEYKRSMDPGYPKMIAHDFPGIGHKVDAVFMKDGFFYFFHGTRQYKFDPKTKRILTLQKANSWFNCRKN
# [2] = biological target: Collagenase 3 (Homo sapiens, UniProt P45452); experiment: Inhibition of recombinant Matrix metalloprotease-13 (MMP-13)
# [3] = biological target: 72 kDa type IV collagenase (Homo sapiens, UniProt P08253); experiment: Inhibition of recombinant matrix metalloprotease-2 (MMP-2)
# [4] = biological target: Stromelysin-1 (Homo sapiens, UniProt P08254); experiment: Inhibition of recombinant matrix metalloprotease-3 (MMP-3)
# [5] = Selectivity ratio for MMP-2 over MMP-3
# [6] = Steady state volume of distribution after iv administration to rats; format: ADME, organism-based; conditions: rat, in vivo
# [7] = Terminal half-life after iv administration to rats; format: ADME, organism-based; conditions: rat, in vivo
# [8] = Clearance after iv administration to rats; format: ADME, organism-based; conditions: rat, in vivo
# Sequence of Stromelysin-1 (P08254 whole entry): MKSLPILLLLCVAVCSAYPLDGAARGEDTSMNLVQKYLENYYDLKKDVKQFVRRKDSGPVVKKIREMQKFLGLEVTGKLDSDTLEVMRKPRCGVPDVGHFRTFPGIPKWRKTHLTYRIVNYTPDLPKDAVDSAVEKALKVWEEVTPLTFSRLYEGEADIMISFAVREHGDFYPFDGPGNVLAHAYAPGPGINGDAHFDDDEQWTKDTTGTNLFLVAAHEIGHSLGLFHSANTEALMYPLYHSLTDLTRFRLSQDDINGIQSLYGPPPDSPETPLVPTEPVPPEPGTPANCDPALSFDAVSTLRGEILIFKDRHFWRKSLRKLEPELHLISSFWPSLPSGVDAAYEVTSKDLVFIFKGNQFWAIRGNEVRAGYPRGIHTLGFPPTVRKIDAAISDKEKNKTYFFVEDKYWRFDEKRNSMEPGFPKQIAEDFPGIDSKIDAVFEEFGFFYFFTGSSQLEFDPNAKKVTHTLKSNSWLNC
# Sequence of 72 kDa type IV collagenase (P08253 whole entry): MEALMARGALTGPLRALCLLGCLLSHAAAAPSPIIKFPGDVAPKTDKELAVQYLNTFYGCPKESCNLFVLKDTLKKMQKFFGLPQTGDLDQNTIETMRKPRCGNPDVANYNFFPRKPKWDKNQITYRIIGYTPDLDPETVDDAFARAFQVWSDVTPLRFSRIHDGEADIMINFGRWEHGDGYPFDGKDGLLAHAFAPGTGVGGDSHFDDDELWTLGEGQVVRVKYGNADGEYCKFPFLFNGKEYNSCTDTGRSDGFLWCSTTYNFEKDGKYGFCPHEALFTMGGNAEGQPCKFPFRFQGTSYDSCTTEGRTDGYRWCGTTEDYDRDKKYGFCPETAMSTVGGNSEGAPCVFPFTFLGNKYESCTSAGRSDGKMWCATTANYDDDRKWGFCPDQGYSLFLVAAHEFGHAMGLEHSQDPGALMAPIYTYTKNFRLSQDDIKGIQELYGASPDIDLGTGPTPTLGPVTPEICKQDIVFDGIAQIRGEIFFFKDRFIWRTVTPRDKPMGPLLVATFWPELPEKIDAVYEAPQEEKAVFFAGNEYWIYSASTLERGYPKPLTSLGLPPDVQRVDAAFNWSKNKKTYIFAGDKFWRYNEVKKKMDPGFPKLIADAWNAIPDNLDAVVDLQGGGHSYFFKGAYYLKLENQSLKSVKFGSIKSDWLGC
IC50 [1] [µM],SMILES,IC50 [2] [µM],also measured
2.1,CNC(=O)[C@@H](Cc1ccc(OC)cc1)NC(=O)C(CC(C)C)CP(=O)(O)Cc1ccc(C(=O)NCc2ccccc2)cc1 (some centres undefined),,
,CC(C)C[C@@H](NC(=O)[C@H](CCc1ccccc1)CP(=O)(O)CCCCN1C(=O)c2ccccc2C1=O)C(=O)Nc1ccccc1,,Ki [3]: 0.02 µM
0.75,CNC(=O)[C@H](NC(=O)C(CC(C)C)CP(=O)(O)Cc1ccc(C(=O)c2ccccc2)cc1)C(C)(C)C (some centres undefined),,
1.8,CNC(=O)[C@H](NC(=O)C(CC1CCCCC1)CP(=O)(O)Cc1ccc(Cc2ccccc2)cc1)C(C)(C)C (some centres undefined),1.6,
18,CC(C)CC(CP(=O)(O)Cc1ccc(Cc2ccccc2)cc1)C(=O)NC(CO)C(C)(C)C (centres undefined),,
3.5,CNC(=O)[C@H](NC(=O)C(CCC(C)C)CP(=O)(O)Cc1ccc(Cc2ccccc2)cc1)C(C)(C)C (some centres undefined),> 3,
,CC(=O)N1CCC[C@H]1C(=O)NCCCCP(=O)(O)C[C@@H](CCc1ccccc1)C(=O)N[C@H](CC(C)C)C(=O)Nc1ccccc1,,Ki [4]: 0.062 µM; Selectivity [5]: 10; Ki [3]: 0.0061 µM
2.3,CNC(=O)[C@@H](C)NC(=O)C(CC(C)C)CP(=O)(O)Cc1ccc(Cc2ccccc2)cc1 (some centres undefined),,
20,CC(C)CC(CP(=O)(O)Cc1ccc(Cc2ccccc2)cc1)C(=O)NCC(C)(C)C (centres undefined),,
> 30,CNC(=O)[C@H](NC(=O)C(CCCCOc1ccccc1)CP(=O)(O)Cc1ccc(Cc2ccccc2)cc1)C(C)(C)C (some centres undefined),0.03,
0.69,CNC(=O)[C@H](NC(=O)C(CCc1ccccc1)CP(=O)(O)Cc1ccc(Cc2ccccc2)cc1)C(C)(C)C (some centres undefined),0.014,IC50 [4]: 1.2 µM; Vd [6]: 0.2 L/kg; half-life [7]: 2.3 h; clearance [8]: 0.72 L/h/kg
19,CNC(=O)[C@H](NC(=O)C(CCC1CCCCC1)CP(=O)(O)Cc1ccc(Cc2ccccc2)cc1)C(C)(C)C (some centres undefined),2,

SMILES,IC50 [1] [µM],IC50 [2] [µM],also measured
CNC(=O)[C@H](NC(=O)C(CC(C)C)CP(=O)(O)Cc1ccc(Cc2ccccc2)cc1)C(C)(C)C (some centres undefined),0.06,0.18,
CNC(=O)[C@H](NC(=O)C(CC1CC1)CP(=O)(O)Cc1ccc(Cc2ccccc2)cc1)C(C)(C)C (some centres undefined),0.2,1.1,
CNC(=O)[C@H](NC(=O)C(CCc1ccccc1)CP(=O)(O)Cc1ccccc1)C(C)(C)C (some centres undefined),22,0.3,IC50 [4]: 2.7 µM
CNC(=O)[C@H](NC(=O)C(CCC(F)(F)F)CP(=O)(O)Cc1ccc(Cc2ccccc2)cc1)C(C)(C)C (some centres undefined),0.045,1.6,
CNC(=O)[C@H](NC(=O)C(CC1CCC1)CP(=O)(O)Cc1ccc(Cc2ccccc2)cc1)C(C)(C)C (some centres undefined),0.18,0.11,

# Reference: ChEMBL document CHEMBL1132009, “Inhibition of MMP-1 and MMP-13 with phosphinic acids that exploit binding in the S2 pocket” (Bioorg Med Chem Lett, 1999)
